Laboratory results: ChEMBL document CHEMBL5550087, “Development of tenofovir monobenzyl ester phosphonoamidate prodrugs with improved anti-hepatitis B virus activity and intrahepatic tenofovir enrichment” (Bioorg Med Chem, 2024)

Key:
[1] = Drug metabolism in Sprague-Dawley rat assessed as MRT(0 to t) of tenofovir metabolite at 5 mg/kg, iv measured for 24 hrs by LC-MS/MS analysis; assay type: ADME, organism-based; details: in vivo
[2] = Drug metabolism in Sprague-Dawley rat liver assessed as terminal elimination half life of tenofovir metabolite at 25 mg/kg, ig measured for 12 hrs by LC-MS/MS analysis; assay type: ADME, organism-based; details: in vivo, po
[3] = Drug metabolism in Sprague-Dawley rat kidney assessed as Tmax of tenofovir metabolite at 25 mg/kg, ig measured for 12 hrs by LC-MS/MS analysis; assay type: ADME, organism-based; details: in vivo, po
[4] = Stability of the compound in simulated intestinal fluid at 10 uM incubated at 37 degC for upto 1440 mins by LC-MS/MS analysis; assay type: ADME; details: simulated gi fluid, 24 h
[5] = Drug metabolism in Sprague-Dawley rat assessed as terminal elimination half life of tenofovir metabolite at 25 mg/kg, ig measured for 24 hrs by LC-MS/MS analysis; assay type: ADME, organism-based; details: in vivo, po
[6] = Mutagenicity in Salmonella typhimurium TA98 assessed as revertant colonies at 1.5 to 1000 ug/well incubated for 66.5 hrs in the dark in presence of S9 fraction by mini-Ames test; assay type: toxicity, subcellular; details: salmonella enterica subsp. enterica serovar typhimurium, s9, 66.5 h, dose 1.5-1000 µg
[7] = Drug metabolism in Sprague-Dawley rat assessed as clearance of tenofovir metabolite at 5 mg/kg, iv measured for 24 hrs by LC-MS/MS analysis; assay type: ADME, organism-based; details: in vivo
[8] = Drug metabolism in Sprague-Dawley rat assessed as Tmax of tenofovir metabolite at 25 mg/kg, ig measured for 24 hrs by LC-MS/MS analysis; assay type: ADME, organism-based; details: in vivo, po
[9] = Drug metabolism in Sprague-Dawley rat kidney assessed as Cmax of tenofovir metabolite at 25 mg/kg, ig measured for 12 hrs by LC-MS/MS analysis; assay type: ADME, organism-based; details: in vivo, po
[10] = Drug metabolism in Sprague-Dawley rat assessed as terminal elimination half life of tenofovir metabolite at 5 mg/kg, iv measured for 24 hrs by LC-MS/MS analysis; assay type: ADME, organism-based; details: in vivo
[11] = Drug metabolism in Sprague-Dawley rat liver assessed as Cmax of tenofovir metabolite at 25 mg/kg, ig measured for 12 hrs by LC-MS/MS analysis; assay type: ADME, organism-based; details: in vivo, po
[12] = Drug metabolism in Sprague-Dawley rat kidney assessed as terminal elimination half life of tenofovir metabolite at 25 mg/kg, ig measured for 12 hrs by LC-MS/MS analysis; assay type: ADME, organism-based; details: in vivo, po
[13] = target: Voltage-gated inwardly rectifying potassium channel KCNH2 (Homo sapiens, UniProt Q12809); assay: Inhibition of hERG expressed in CHO cells assessed as inhibition of channel current measured at holding potential of -80 mV by whole cell patch clamp analysis; assay type: toxicity, cell-based
Chain of Voltage-gated inwardly rectifying potassium channel KCNH2 (Q12809 whole entry): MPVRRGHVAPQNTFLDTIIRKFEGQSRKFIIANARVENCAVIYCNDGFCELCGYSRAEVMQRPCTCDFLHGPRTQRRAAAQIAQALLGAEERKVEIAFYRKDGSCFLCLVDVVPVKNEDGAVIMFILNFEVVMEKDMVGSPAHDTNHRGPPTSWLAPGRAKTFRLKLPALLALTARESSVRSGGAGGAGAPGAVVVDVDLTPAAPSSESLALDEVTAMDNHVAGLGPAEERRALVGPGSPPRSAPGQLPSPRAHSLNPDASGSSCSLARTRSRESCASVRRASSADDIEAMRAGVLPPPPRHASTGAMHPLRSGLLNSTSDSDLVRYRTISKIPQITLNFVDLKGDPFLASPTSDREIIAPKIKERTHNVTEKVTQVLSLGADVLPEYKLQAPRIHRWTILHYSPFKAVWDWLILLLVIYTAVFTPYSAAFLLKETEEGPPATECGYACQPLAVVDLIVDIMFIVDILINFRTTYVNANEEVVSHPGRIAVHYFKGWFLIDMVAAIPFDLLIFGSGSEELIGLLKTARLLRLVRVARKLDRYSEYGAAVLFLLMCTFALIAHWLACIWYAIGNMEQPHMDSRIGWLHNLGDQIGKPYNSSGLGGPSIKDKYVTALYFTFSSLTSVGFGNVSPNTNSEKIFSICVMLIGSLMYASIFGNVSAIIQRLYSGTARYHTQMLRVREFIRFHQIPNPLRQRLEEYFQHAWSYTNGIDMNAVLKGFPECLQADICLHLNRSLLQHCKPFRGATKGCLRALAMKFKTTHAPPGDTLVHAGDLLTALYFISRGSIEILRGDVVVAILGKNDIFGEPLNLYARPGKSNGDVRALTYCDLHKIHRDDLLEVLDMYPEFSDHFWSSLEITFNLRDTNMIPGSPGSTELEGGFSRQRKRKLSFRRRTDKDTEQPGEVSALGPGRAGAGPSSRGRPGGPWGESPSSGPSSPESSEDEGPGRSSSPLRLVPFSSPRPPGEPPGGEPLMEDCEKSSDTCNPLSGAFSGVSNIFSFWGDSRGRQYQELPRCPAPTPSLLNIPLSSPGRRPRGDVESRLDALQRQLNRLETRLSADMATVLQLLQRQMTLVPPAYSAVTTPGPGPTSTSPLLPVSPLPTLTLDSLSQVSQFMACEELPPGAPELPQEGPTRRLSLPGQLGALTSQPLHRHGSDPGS

[14] = Mutagenicity in Salmonella typhimurium TA100 assessed as revertant colonies at 1.5 to 1000 ug/well incubated for 66.5 hrs in the dark by mini-Ames test; assay type: toxicity; details: salmonella enterica subsp. enterica serovar typhimurium, dose 1.5-1000 µg
[15] = Drug metabolism in human liver S9 fraction assessed as tenofovir metabolite formation at 1 uM incubated for upto 60 mins by LC-MS/MS analysis; assay type: ADME, subcellular; details: s9, 1 h
[16] = Drug metabolism in Sprague-Dawley rat plasma assessed as terminal elimination half life of tenofovir metabolite at 25 mg/kg, ig measured for 12 hrs by LC-MS/MS analysis; assay type: ADME, organism-based; details: in vivo, po
[17] = Drug metabolism in Sprague-Dawley rat assessed as bioavailability of tenofovir metabolite at 25 mg/kg, ig measured for 24 hrs by LCMS/MS analysis; assay type: ADME, organism-based; details: in vivo, po
[18] = Drug metabolism in Sprague-Dawley rat assessed as Cmax of tenofovir metabolite at 25 mg/kg, ig measured for 24 hrs by LC-MS/MS analysis; assay type: ADME, organism-based; details: in vivo, po
[19] = Stability of the compound in simulated gastric fluid at 10 uM incubated at 37 degC for upto 1440 mins by LC-MS/MS analysis; assay type: ADME; details: simulated gi fluid, 24 h
[20] = Mutagenicity in Salmonella typhimurium TA100 assessed as revertant colonies at 1.5 to 1000 ug/well incubated for 66.5 hrs in the dark in presence of S9 fraction by mini-Ames test; assay type: toxicity, subcellular; details: salmonella enterica subsp. enterica serovar typhimurium, s9, 66.5 h, dose 1.5-1000 µg
Hepatitis B virus = assay: Antiviral activity against Hepatitis B virus infected in human HepG2.2.15 cells assessed as inhibition of viral DNA replication treated from day 2 to day 8 by real time fluorescence qPCR analysis; assay type: functional, organism-based
[21] = Mutagenicity in Salmonella typhimurium TA98 assessed as revertant colonies at 1.5 to 1000 ug/well incubated for 66.5 hrs in the dark by mini-Ames test; assay type: toxicity; details: salmonella enterica subsp. enterica serovar typhimurium, dose 1.5-1000 µg
[22] = Stability of the compound in human plasma at 2 uM incubated for upto 120 mins by LC-MS/MS analysis; assay type: ADME, cell-free; details: 2 h
[23] = Drug metabolism in Sprague-Dawley rat liver assessed as Tmax of tenofovir metabolite at 25 mg/kg, ig measured for 12 hrs by LC-MS/MS analysis; assay type: ADME, organism-based; details: in vivo, po
[24] = Cytotoxicity against human HepG2.2.15 cells assessed as reduction in cell viability treated from day 2 to day 8 by CellTiter-Blue reagent based fluorescence analysis; assay type: toxicity, HepG2 2.2.15; details: time 6 day
[25] = Drug metabolism in Sprague-Dawley rat assessed as volume of distribution of tenofovir metabolite at 5 mg/kg, iv measured for 24 hrs by LC-MS/MS analysis; assay type: ADME, organism-based; details: in vivo
[26] = Drug metabolism in Sprague-Dawley rat plasma assessed as Cmax of tenofovir metabolite at 25 mg/kg, ig measured for 12 hrs by LC-MS/MS analysis; assay type: ADME, organism-based; details: in vivo, po
[27] = Drug metabolism in Sprague-Dawley rat plasma assessed as Tmax of tenofovir metabolite at 25 mg/kg, ig measured for 12 hrs by LC-MS/MS analysis; assay type: ADME, organism-based; details: in vivo, po
[28] = Drug metabolism in ICR mouse assessed as ratio of tenofovir metabolite level in liver to plasma at 50 mg/kg, ig measured after 3 hrs by LC-MS/MS analysis; assay type: ADME, organism-based; details: other tissue, po
[29] = Drug metabolism in ICR mouse liver assessed as tenofovir metabolite level at 50 mg/kg, ig measured after 3 hrs by LC-MS/MS analysis; assay type: ADME, organism-based; details: in vivo, po
[30] = Drug metabolism in ICR mouse plasma assessed as ratio of tenofovir level to parent compound level at 50 mg/kg, ig measured after 3 hrs by LC-MS/MS analysis; assay type: ADME, organism-based; details: in vivo, po
[31] = Drug uptake in ICR mouse liver at 50 mg/kg, ig measured after 3 hrs by LC-MS/MS analysis; assay type: ADME, organism-based; details: po, read-out: Drug uptake
[32] = Ratio of drug level in ICR mouse liver to plasma at 50 mg/kg, ig measured after 3 hrs by LC-MS/MS analysis; assay type: ADME, organism-based; details: liver and plasma, po
[33] = Plasma concentration in ICR mouse at 50 mg/kg, ig measured after 3 hrs by LC-MS/MS analysis; assay type: ADME, organism-based; details: po
[34] = Drug metabolism in ICR mouse liver assessed as ratio of tenofovir level to parent compound level at 50 mg/kg, ig measured after 3 hrs by LC-MS/MS analysis; assay type: ADME, organism-based; details: in vivo, po
[35] = Drug metabolism in ICR mouse plasma assessed as tenofovir metabolite level at 50 mg/kg, ig measured after 3 hrs by LC-MS/MS analysis; assay type: ADME, organism-based; details: in vivo, po

## CC(C)OC(=O)[C@H](C)NP(=O)(CO[C@H](C)Cn1cnc2c(N)ncnc21)OCc1ccccc1 (single isomer, unassigned; 3a)
[1]
  MRT(t): 0.921 h
[2]
  t1/2: 6.77 h
[3]
  Tmax: 0.25 h
[4]
  Stability: Stable
[5]
  t1/2: 10.7 h
[6]
  Activity: Non-Toxic
[7]
  CL: 348 mL/min/kg
[8]
  Tmax: 0.147 h
[9]
  Cmax: 3234 ng/mL
[10]
  t1/2: 2.89 h
[11]
  Cmax: 10589 ng/mL
[12]
  t1/2: 322 h
[13]
  IC50: > 10 µM
[14]
  Activity: Non-Toxic
[15]
  Drug metabolism: Metabolite_Detected
[16]
  t1/2: 6.58 h
[17]
  F: 32.7%
[18]
  Cmax: 98.35 ng/mL
[19]
  Stability: Stable
[20]
  Activity: Non-Toxic
Hepatitis B virus
  EC50: 0.00339 µM
[21]
  Activity: Non-Toxic
[22]
  Stability: Stable
[23]
  Tmax: 0.25 h
[24]
  CC50 at 144 h: > 100 µM
[25]
  Vd: 86.6 L/kg
[26]
  Cmax: 279 ng/mL
[27]
  Tmax: 0.25 h

## Cc1ccccc1COP(=O)(CO[C@H](C)Cn1cnc2c(N)ncnc21)N[C@@H](C)C(=O)OC(C)C (single isomer, unassigned; 5a)
Hepatitis B virus
  EC50: > 1 µM
[24]
  CC50 at 144 h: > 100 µM

## C[C@H](Cn1cnc2c(N)ncnc21)OCP(=O)(NCC(=O)Oc1ccccc1)OCc1ccccc1 (single isomer, unassigned; 4b)
Hepatitis B virus
  EC50: 0.848 µM
[24]
  CC50 at 144 h: > 100 µM

## COC(=O)CNP(=O)(CO[C@H](C)Cn1cnc2c(N)ncnc21)OCc1ccccc1 (single isomer, unassigned; 2a)
Hepatitis B virus
  EC50: 0.418 µM
[24]
  CC50 at 144 h: > 100 µM

## COC(=O)CNP(=O)(CO[C@H](C)Cn1cnc2c(N)ncnc21)OCc1ccccc1 (single isomer, unassigned; 2b)
Hepatitis B virus
  EC50: > 1 µM
[24]
  CC50 at 144 h: > 100 µM

## CC(C)OC(=O)[C@H](C)NP(=O)(CO[C@H](C)Cn1cnc2c(N)ncnc21)OCc1ccccc1 (single isomer, unassigned; 3b)
[1]
  MRT(t): 0.489 h
[2]
  t1/2: 10.7 h
[3]
  Tmax: 0.25 h
[4]
  Stability: Stable
[5]
  t1/2: 2.84 h
[6]
  Activity: Non-Toxic
[7]
  CL: 435 mL/min/kg
[8]
  Tmax: 0.375 h
[9]
  Cmax: 4663 ng/mL
[10]
  t1/2: 2 h
[11]
  Cmax: 10557 ng/mL
[12]
  t1/2: 26.2 h
[13]
  IC50: > 30 µM
[14]
  Activity: Non-Toxic
[15]
  Drug metabolism: Metabolite_Detected
[16]
  t1/2: 6.56 h
[17]
  F: 31.5%
[18]
  Cmax: 143 ng/mL
[19]
  Stability: Stable
[20]
  Activity: Non-Toxic
Hepatitis B virus
  EC50: 0.006 µM
[21]
  Activity: Non-Toxic
[22]
  Stability: Stable
[23]
  Tmax: 0.25 h
[24]
  CC50 at 144 h: > 100 µM
[25]
  Vd: 67.4 L/kg
[26]
  Cmax: 216 ng/mL
[27]
  Tmax: 0.25 h

## CC(C)OC(=O)CNP(=O)(CO[C@H](C)Cn1cnc2c(N)ncnc21)OCc1ccccc1 (single isomer, unassigned; 1b)
Hepatitis B virus
  EC50: 0.29 µM
[24]
  CC50 at 144 h: > 100 µM

## CC(C)OC(=O)[C@H](C)N[P@](=O)(CO[C@H](C)Cn1cnc2c(N)ncnc21)Oc1ccccc1 [TENOFOVIR ALAFENAMIDE]
[1]
  MRT(t): 1.67 h
[2]
  t1/2: 6.2 h
[3]
  Tmax: 0.25 h
[5]
  t1/2: 5.46 h
[7]
  CL: 42.8 mL/min/kg
[8]
  Tmax: 0.375 h
[9]
  Cmax: 16471 ng/mL
[10]
  t1/2: 4.59 h
[11]
  Cmax: 29820 ng/mL
[12]
  t1/2: 5.2 h
[13]
  IC50: > 10 µM
[15]
  Drug metabolism: Metabolite_Detected
[16]
  t1/2: 4.44 h
[17]
  F: 27.7%
[18]
  Cmax: 1370 ng/mL
Hepatitis B virus
  EC50: 0.0178 µM
[23]
  Tmax: 0.25 h
[24]
  CC50 at 144 h: > 100 µM
[25]
  Vd: 16.1 L/kg
[26]
  Cmax: 4027 ng/mL
[27]
  Tmax: 0.25 h

## Cc1ccccc1COP(=O)(CO[C@H](C)Cn1cnc2c(N)ncnc21)N[C@@H](C)C(=O)OC(C)C (single isomer, unassigned; 5b)
[13]
  IC50: > 10 µM
Hepatitis B virus
  EC50: 0.275 µM
[24]
  CC50 at 144 h: > 100 µM

## CC(C)OC(=O)CNP(=O)(CO[C@H](C)Cn1cnc2c(N)ncnc21)OCc1ccccc1 (single isomer, unassigned; 1a)
Hepatitis B virus
  EC50: > 1 µM
[24]
  CC50 at 144 h: > 100 µM

## C[C@H](Cn1cnc2c(N)ncnc21)OCP(=O)(NCC(=O)Oc1ccccc1)OCc1ccccc1 (single isomer, unassigned; 4a)
Hepatitis B virus
  EC50: 0.214 µM
[24]
  CC50 at 144 h: > 100 µM

## CC(C)OC(=O)[C@H](C)NP(=O)(CO[C@H](C)Cn1cnc2c(N)ncnc21)OCc1ccccc1 (some centres not stated)
[28]
  Ratio: 896
[29]
  Drug metabolism: 67.251 nmol/mL
[30]
  Ratio: 0.72
[31]
  concentration at 3 h: 375 nM
[32]
  Kp at 3 h: 3.61
[33]
  concentration at 3 h: 104 nM
[34]
  Ratio: 166
[35]
  Drug metabolism: 0.075 nmol/mL
